Reference: patent publication US12365674B2, “Inhibitors of histone deacetylase useful for the treatment or prevention of HIV infection” (Merck Sharp & Dohme LLC, priority 2019, dated 2025)
Where two headings read alike, the source gives them in different places.

Test system: KARN cells (Jurkat 2C4)
Assay: KARN assay (luciferase induction in latently HIV-infected Jurkat 2C4 cells)
Type: cell-based
Details: ~20 hr, luciferase induction relative to 2 μM SAHA (100%)
Protocol: KARN cells (Jurkat 2C4) were licensed from the laboratory of Dr. John Karn, Case Western Reserve University, School of Medicine. The details regarding this cell line are published (Pearson, R., Kin, Y. K., Hokello, J., Lassen, K., Friedman, J., Tyagi, M., Karn, J., 2008, J. Virol. 82:12291-12303). The cells were grown in a T175 flask (Thermo Fisher, catalog number 159910) in RPMI 1640 containing L-glutamine and phenol red (Life Technologies, catalog number 11875-085), 5% heat inactivated fetal bovine serum (FBS; Life Technologies, catalog number 10100-147) and 100 μg/ml Penicillin-Streptomycin (Life Technologies, catalog number 15140-122) at 37° C. An atmosphere of 5% CO2 and 90% humidity was used for all culture work. Cells were split and reseeded into T175 flasks at a density of 0.2×10^6 cells/ml, in 40 ml of media, every 3-4 days.
Day 1: After the 3-4 day growth period, the cells were transferred from the T175 flask to a 50 ml conical tube and gently pelleted at 1000 rpm for 5 minutes. The supernatant was removed and the cells gently resuspended in assay media RPMI 1640 medium containing L-glutamine but without Phenol Red (Life Technologies, catalog number 11835-030), 5% FBS and 100 μg/ml Penicillin-Streptomycin, and then reseeded such that the original flask is now divided into two T175 flasks. These flasks were returned to the incubator.
Day 2: Cell Preparation: The next day, the cells were transferred from each T175 flask to an individual 50 ml conical tube and gently pelleted at 1000 rpm for 5 minutes. The cells were gently resuspended in assay media (30 ml) and pelleted again. The cell pellets were each resuspended in 30 ml of RPMI 1640 medium containing L-glutamine but without Phenol Red, 100 μg/ml Penicillin-Streptomycin and containing either 0.1% or 5% normal human serum (NHS; Biospecialty, Colmar, PA, catalog number 115-00 Anticoagulant free). The cells were counted using the ViCell (Beckman Coulter, Brea, CA) and diluted as necessary. A Multidrop (Combi, Thermo Scientific, Waltham, MA) with a sterile head was used to seed the cells into the wells of a 384-well solid black plate with lid (Perkin Elmer, Waltham, MA, catalog number 6007660) at 4000 cells/30 μl/well for the 5% NHS assay media and 6000 cells/30 μl/well for 0.1% NHS assay. The plates were covered and returned to the incubator prior to compound addition.
Compound Preparation: Solutions of control inhibitor suberoylanilide hydroxamic acid (SAHA; Sigma, catalog number SML0061) and test compounds in 100% DMSO were titrated into 384-well polypropylene plates (Labcyte, San Jose, CA, catalog number P-05525) using a 20-point dose response and 2-fold dilutions. The reference compounds, DMSO and SAHA were then added to the compound plate. Using the Access system (Labcyte), 120 nl of these inhibitor and control solutions were added to the individual wells of the plates containing the cells, and the plates were then returned to the incubator for ˜20 hr (range from 18-24 hr). The final high concentration for SAHA and the test compounds in the assays was 40 μM. The final DMSO concentration in all wells was 0.4%. The minimal induction reference compound used was DMSO and the maximal induction reference compound used was SAHA (2 μM final concentration in the assay).
Day 3: The luciferase detection reagent was prepared by transferring the contents of one bottle of Steady-Glo buffer to one bottle of Steady-Glo substrate (Steady-Glo Luciferase Assay System, Promega, Madison, […], catalog number E2520), followed by gently mixing until the substrate was thoroughly dissolved and the solution was equilibrated to room temperature. The cell culture assay plates were removed from the incubator and brought to room temperature (15 min). The Steady-Glo Reagent was added to the plates (30 μl/well), which were then covered with a black lid and incubated for 10 minutes at room temperature. […]

[1] = 0.1% normal human serum, 6000 cells/well, read-out: Karn 0.1% NHS
[2] = 5% normal human serum, 4000 cells/well, read-out: Karn 5% NHS

COc1nc2ccccc2cc1-c1cnc([C@@H](N)COCCCC(=O)c2ncco2)[nH]1 [Compound 1, (R)-4-(2-amino-2-(5-(2-methoxyquinolin-3-yl)-1H-imidazol-2-yl)ethoxy)-1-(oxazol-2-yl)butan-1-one]
EC50 [1]: 11700 nM

COc1nc2ccccc2cc1-c1cnc([C@H](COCCCC(=O)c2ncco2)NC(=O)C23CCN(CC2)CC3)[nH]1 [Compound 12, N-{(1R)-1-[5-(2-methoxyquinolin-3-yl)-1H-imidazol-2-yl]-2-[4-(1,3-oxazol-2-yl)-4-oxobutoxy]ethyl}-1-azabicyclo[2.2.2]octane-4-carboxamide]
EC50 [1]: 252 nM
EC50 [2]: 562 nM

CN1CC(C(=O)N[C@@H](COCCCC(=O)c2ccon2)c2[nH]c(-c3ccc(F)cc3)nc2Cl)C1 [Compound 16, N-[(1R)-1-[4-chloro-2-(4-fluorophenyl)-1H-imidazol-5-yl]-2-(4-isoxazol-3-yl-4-oxobutoxy)ethyl]-1-methylazetidine-3-carboxamide]
EC50 [1]: 979 nM
EC50 [2]: 1100 nM

CCC(=O)CCCOC[C@H](NC(=O)[C@H]1CC12CCN(CC)CC2)c1ncc(-c2cc3ccccc3nc2OC)[nH]1 [Compound 7, (1S)-6-ethyl-N-{(1R)-1-[5-(2-methoxyquinolin-3-yl)-1H-imidazol-2-yl]-2-[(4-oxohexyl)oxy]ethyl}-6-azaspiro[2.5]octane-1-carboxamide]
EC50 [1]: 2350 nM
EC50 [2]: 3500 nM

CCC(=O)CCCOC[C@H](NC(=O)C12CCN(CC1)CC2)c1ncc(-c2cc3ccccc3nc2OC)[nH]1 [Compound 6, N-{(1R)-1-[5-(2-methoxyquinolin-3-yl)-1H-imidazol-2-yl]-2-[(4-oxohexyl)oxy]ethyl}-1-azabicyclo[2.2.2]octane-4-carboxamide]
EC50 [1]: 8970 nM
EC50 [2]: 14500 nM

COc1nc2ccccc2cc1-c1cnc([C@H](COCCCC(=O)c2ccon2)NC(=O)CN(C)C)[nH]1 [Compound 14, N-{(1R)-2-(4-isoxazol-3-yl-4-oxobutoxy)-1-[5-(2-methoxyquinolin-3-yl)-1H-imidazol-2-yl]ethyl}-N~2~,N~2~- dimethylglycinamide]
EC50 [1]: 83.8 nM
EC50 [2]: 252 nM

COc1nc2ccccc2cc1-c1cnc([C@H](COCCCC(=O)c2ncco2)NC(=O)c2cncs2)[nH]1 [Compound 10, N-{(1R)-1-[5-(2-methoxyquinolin-3-yl)-1H-imidazol-2-yl]-2-[4-(1,3-oxazol-2-yl)-4-oxobutoxy]ethyl}-1,3-thiazole-5-carboxamide]
EC50 [1]: 295 nM
EC50 [2]: 1500 nM

COc1cc2nc(C)ccc2cc1-c1cnc([C@H](COCCCC(=O)c2cc(C)on2)NC(=O)[C@H]2CC23CCN(C)CC3)[nH]1 [Compound 20, (1S)-N-{(1R)-1-[5-(7-methoxy-2-methylquinolin-6-yl)-1H-imidazol-2-yl]-2-[4-(5-methylisoxazol-3-yl)-4-oxobutoxy]ethyl}-6-methyl-6-azaspiro[2.5]octane-1-carboxamide]
EC50 [1]: 40.5 nM
EC50 [2]: 55.1 nM

CNC(=O)C(=O)CCCOC[C@H](NC(=O)c1cncs1)c1ncc(-c2cc3ccccc3nc2OC)[nH]1 [Compound 8, N-[(1R)-1-[5-(2-methoxyquinolin-3-yl)-1H-imidazol-2-yl]-2-{[5-(methylamino)-4,5-dioxopentyl]oxy}ethyl]-1,3-thiazole-5-carboxamide]
EC50 [1]: 80.2 nM
EC50 [2]: 408 nM

COc1nc2ccccc2cc1-c1cnc([C@H](COCCCC(=O)c2ncco2)NC(=O)[C@H]2CC23CCN(C)CC3)[nH]1 [Compound 11, (1S)-N-{(1R)-1-[5-(2-methoxyquinolin-3-yl)-1H-imidazol-2-yl]-2-[4-(1,3-oxazol-2-yl)-4-oxobutoxy]ethyl}-6-methyl-6-azaspiro[2.5]octane-1-carboxamide]
EC50 [1]: 59.8 nM
EC50 [2]: 218 nM

CNC(=O)C(=O)CCCOC[C@H](NC(=O)C12CCN(CC1)CC2)c1ncc(-c2cc3ccccc3nc2OC)[nH]1 [Compound 9, N-[(1R)-1-[5-(2-methoxyquinolin-3-yl)-1H-imidazol-2-yl]-2-{[5-(methylamino)-4,5-dioxopentyl]oxy}ethyl]-1-azabicyclo[2.2.2]octane-4-carboxamide]
EC50 [1]: 232 nM
EC50 [2]: 466 nM

CN(C)CC(=O)N[C@@H](COCCCC(=O)c1ccon1)c1[nH]c(-c2ccc(F)cc2)nc1Cl [Compound 17, N-[(1R)-1-[4-chloro-2-(4-fluorophenyl)-1H-imidazol-5-yl]-2-(4-isoxazol-3-yl-4-oxobutoxy)ethyl]-N~2~,N~2~- dimethylglycinamide]
EC50 [1]: 1490 nM
EC50 [2]: 2420 nM

COc1nc2ccccc2cc1-c1cnc([C@H](COCCCC(=O)c2ncco2)NC(=O)CN(C)C)[nH]1 [Compound 13, N-{(1R)-1-[5-(2-methoxyquinolin-3-yl)-1H-imidazol-2-yl]-2-[4-(1,3-oxazol-2-yl)-4-oxobutoxy]ethyl}-N~2~,N~2~- dimethylglycinamide]
EC50 [1]: 424 nM
EC50 [2]: 854 nM

COc1cc2nc(C)ccc2cc1-c1cnc([C@H](COCCCC(=O)c2cc(C)on2)NC(=O)C2CN(C)C2)[nH]1 [Compound 19, N-{(1R)-1-[5-(7-methoxy-2-methylquinolin-6-yl)-1H-imidazol-2-yl]-2-[4-(5-methylisoxazol-3-yl)-4-oxobutoxy]ethyl}-1-methylazetidine-3-carboxamide]
EC50 [1]: 374 nM
EC50 [2]: 449 nM

CN1CC(C(=O)N[C@@H](COCCCC(=O)c2ccon2)c2ncc(-c3ccccc3F)[nH]2)C1 [Compound 15, N-[(1R)-1-[5-(2-fluorophenyl)-1H-imidazol-2-yl]-2-(4-isoxazol-3-yl-4-oxobutoxy)ethyl]-1-methylazetidine-3-carboxamide]
EC50 [1]: 539 nM
EC50 [2]: 548 nM

Cc1ccc2cc(-c3cnc([C@H](CSCCCC(=O)c4ncco4)NC(=O)[C@H]4CC45CCN(C)CC5)[nH]3)ccc2n1 [Compound 21, (1S)-6-methyl-N-[(1R)-1-[5-(2-methylquinolin-6-yl)-1H-imidazol-2-yl]-2-{[4-(1,3-oxazol-2-yl)-4-oxobutyl]sulfanyl}ethyl]-6-azaspiro[2.5]octane-1-carboxamide]
EC50 [1]: 60.7 nM
EC50 [2]: 64.4 nM

CN1CCC2(CC1)C[C@@H]2C(=O)N[C@@H](COCCCC(=O)c1ccon1)c1[nH]c(-c2ccc(F)cc2)nc1Cl [Compound 18, (1S)-N-[(1R)-1-[4-chloro-2-(4-fluorophenyl)-1H-imidazol-5-yl]-2-(4-isoxazol-3-yl-4-oxobutoxy)ethyl]-6-methyl-6-azaspiro[2.5]octane-1-carboxamide]
EC50 [1]: 77.7 nM
EC50 [2]: 109 nM
